Source: patent publication US6444662B1 (Willmar Schwabe GmbH & Co., priority 1998, dated 2002)

Legend:
recombinant PKC-γ = recombinant PKC-γ (Homo sapiens, UniProt P05129); experiment: Activation of protein kinase PKC-γ (enzyme test); type: biochemical; settings: control with 100 nM TPA set to 100%
Description: PKCγ activators are potentially suitable for activating cc-secretase. These activators are found in enzyme tests in which the recombinantly produced PKC-γ is suboptimally active. The test media were:
In the table, the control with 100 nM phorbol-12-myristate-13-acetate (TPA; stimulator of PKC-γ) was set to 100%.

[1] = Stability of hyperforin salts on storage at room temperature (content by HPLC); type: physicochemical; settings: for Change in the hyperforin content, difference after 1 week / Change in the hyperforin content, difference after 4 weeks / Change in the hyperforin content, difference after 12 weeks: room temperature, brown-glass bottles, without protective gas; for Change in the hyperforin content, difference after 1 week / Change in the hyperforin content, difference after 4 weeks / Change in the hyperforin content, difference after 12 weeks / Initial value, hyperforin content (% of the stoichiometric content): HPLC; for Initial value, hyperforin content (% of the stoichiometric content): hyperforin (examples 1 to 20) or hyperforin+adhyperforin (examples 21 to 31)
Description: General: Melting points were measured with Elektrothermal® or B-545 (Büchi) apparatus; IR spectra were recorded with an IFS 28 (Bruker) IR-spectrometer on KBr blanks, NMR spectra with an AC 200 or Avance 200 (Bruker) in D4-methanol (200 MHz for ^1H and 50 MHz for ^13C; δ-values in ppm). HPLC determinations were performed using a Dynamax PDA-1 from Rainin, Voburn, Mass., USA. HPLC conditions (isocratic): adsorbant: Eurospher 100-C18, 10 μm. Eluant: Acetonitrile/water/phosphoric acid=85/15/0.3 (vol./vol.). Detection: 273 nm. […] Assay: Content stated in area-% with reference to the reference standard. […] Operating conditions: under red light or in darkened apparatus under protective gas (nitrogen or argon). […] They are calculated as hydrates. Abbreviations: MTBE=Methyl tert.-butyl ether. “98H/I”=n-heptane/isopropanol 98/2 (vol/vol). Mp.=melting point. anh.=anhydrous. Th=theoretical. sv=very strong.
1 This salt is used as the reference standard.

α-secretase = experiment: Activation of α-secretase in secα1-transfected cells (Seap release); type: cell-based, human; settings: 60 min incubation, mean of triplicates
Description: As the APP cassette in both constructs begins with amino-acid 7 of the β-amyloid sequence, the recognition sequence for β-secretase in the sec-fusion proteins is absent. Cleavage by γ-secretase has not been described for human APLP-2, with the result that the specificity of the fusion proteins for α-secretase only is achieved by substitution of the trans-membrane domain of APLP-2 for APP. The expression plasmid secα1 was stably transfected into human neuronal cells SY5Y. Activation of α-secretase in these secα1-transfected cells is manifested in an increased release of Seap into the cell medium. The quantity of Seap is determined, and serves as a measure of the α-secretase activity.
Test conditions: 80 000 FL-2a cells/well. V=100 μl. Incubation time: 60 min.
Concentration of the substances: 10 μg/ml.
Mean values±s.d. of triplicates.
The activation of α-secretase by the phorbol ester TPA (100 ng/ml) was measured as the positive control.

Structure (SMILES)	Increase in the activity of PKC-γ (recombinant PKC-γ; substance dose 1 μg/ml) [%]	Increase in the activity of PKC-γ (recombinant PKC-γ; substance dose 3 μg/ml) [%]	Increase in the activity of PKC-γ (recombinant PKC-γ; substance dose 10 μg/ml) [%]	Change in the hyperforin content, difference after 1 week [1]	Change in the hyperforin content, difference after 4 weeks [1]	Change in the hyperforin content, difference after 12 weeks [1] [%]	Initial value, hyperforin content (% of the stoichiometric content) ([1]; storage time 0) [%]	further results
CC(C)=CCC[C@]1(C)[C@@H](CC=C(C)C)C[C@@]2(CC=C(C)C)C(=O)[C@]1(C(=O)C(C)C)C(=O)C(CC=C(C)C)=C2O.[Na] [Example 1, Hyperforin Sodium Salt]	9	30	56	–	–	–	–	–
C1CCC(NC2CCCCC2)CC1.CC(C)=CCC[C@]1(C)C(CC=C(C)C)C[C@@]2(CC=C(C)C)C(=O)[C@]1(C(=O)C(C)C)C(=O)C(CC=C(C)C)=C2O (some centres unmarked) [Example 2, N,N-Dicyclohexylamine Salt of Hyperforin]	–	–	–	–	–	–	–	Initial value, hyperforin content (titr.) ([1]; storage time 0, perchloric-acid titration): 100%
CC(C)=CCC[C@]1(C)C(CC=C(C)C)C[C@@]2(CC=C(C)C)C(=O)[C@]1(C(=O)C(C)C)C(=O)C(CC=C(C)C)=C2O.COc1cc(CN)cc(OC)c1OC (some centres unmarked) [Example 3, 3,4,5-Trimethoxybenzylamine Salt of Hyperforin]	–	–	–	+1.1%	−1.1%	−5.0	87.2	–
C1CCNC1.CC(C)=CCC[C@]1(C)C(CC=C(C)C)C[C@@]2(CC=C(C)C)C(=O)[C@]1(C(=O)C(C)C)C(=O)C(CC=C(C)C)=C2O (some centres unmarked) [Example 5, Pyrrolidine Salt of Hyperforin]	3	20	48	−0.5%	–	−3.2	93.7	–
CC(C)=CCCC1(C)C(CC=C(C)C)CC2(CC=C(C)C)C(=O)C1(C(=O)C(C)C)C(=O)C(CC=C(C)C)=C2O.NCCCNC1CCCCC1 (centres unmarked) [Example 15]	–	–	–	−2.0%	−2.0%	−9.9	90.8	–
CC(C)=CCC[C@]1(C)C(CC=C(C)C)C[C@@]2(CC=C(C)C)C(=O)[C@]1(C(=O)C(C)C)C(=O)C(CC=C(C)C)=C2O.Nc1ccncc1 (some centres unmarked) [Example 16]	–	–	–	+1.4%	+0.1%	–	94.6	–
CC(C)=CCC[C@]1(C)[C@@H](CC=C(C)C)C[C@@]2(CC=C(C)C)C(=O)[C@]1(C(=O)C(C)C)C(=O)C(CC=C(C)C)=C2O [Hyperforin, hyperforin, reference compound]	6	51	45	–	–	–	–	Activity of α-secretase (secreted alkaline phosphatase, Seap) (α-secretase; 10 μg/ml, 80 000 cells/well): 441 RLU
CCCCCCCCCCCCCC(=O)O[C@@H]1[C@@H](C)[C@@]2(O)[C@@H](C=C(CO)C[C@]3(O)C(=O)C(C)=C[C@@H]23)[C@@H]2C(C)(C)[C@]12OC(C)=O [TPA, phorbol-12-myristate-13-acetate]	–	–	–	–	–	–	–	Activity of α-secretase (secreted alkaline phosphatase, Seap) (α-secretase; positive control, 100 ng/ml): 386 RLU
